Drawing on ChEMBL document CHEMBL1938256, “Synthesis and DNA cleavage studies of novel quinoline oxime esters” (Bioorg Med Chem Lett, 2012), this text covers Activity for nine compounds.

Common to all, as to assay type: nucleic-acid assay
The subject of assay [1] is Nucleic Acid. The experiment in a line: Induction of UV light-induced Escherichia coli pUC19 DNA cleavage assessed as conversion of supercoiled DNA into linear form at 80 uM by neutral agarose gel electrophoresis.
In assay [2] the test system is Nucleic Acid. Briefly: Induction of Escherichia coli pUC19 DNA cleavage assessed as conversion of supercoiled DNA into nicked circular form at 40 to 80 uM by neutral agarose gel electrophoresis in presence of UV light.
Assay [3] relates to Nucleic Acid. The experiment in a line: Induction of UV light-induced Escherichia coli pUC19 DNA cleavage assessed as conversion of supercoiled DNA into nicked form at 80 uM by neutral agarose gel electrophoresis.

The source made the active and inactive calls. No cut-off for these calls is given here.

For the compound `O=C(O/N=C/c1cc2ccccc2nc1Cl)c1ccc(Br)cc1`, the outcome in the assay on Nucleic Acid [1], in the assay on Nucleic Acid [2] and in the assay on Nucleic Acid [3] was Active.

Turning to `O=C(O/N=C/c1cc2ccccc2nc1Cl)c1cc([N+](=O)[O-])cc([N+](=O)[O-])c1`, the result with Nucleic Acid [1], with Nucleic Acid [2] and in the assay on Nucleic Acid [3] was Active.

Consider `O=C(O/N=C/c1cc2ccccc2nc1Cl)c1ccccc1F`, for which the result in the assay with Nucleic Acid [1], in the assay with Nucleic Acid [2] and with Nucleic Acid [3] was Active.

Consider `O=C(O/N=C/c1cc2ccccc2nc1Cl)c1ccc([N+](=O)[O-])cc1`, for which the outcome in the assay with Nucleic Acid [1], in the assay on Nucleic Acid [2] and in the assay on Nucleic Acid [3] was Active.

`O=C(O/N=C/c1cc2ccccc2nc1Cl)c1ccc(Cl)cc1`: the outcome in the assay on Nucleic Acid [1], with Nucleic Acid [2] and in the assay on Nucleic Acid [3] was Active.

Consider `O=C(O/N=C/c1cc2ccccc2nc1Cl)c1ccccc1`, for which the result with Nucleic Acid [1] and with Nucleic Acid [3] was inactive. Further, the outcome in the assay with Nucleic Acid [2] was Active.

As to `O=C(O/N=C/c1cc2ccccc2nc1Cl)c1ccc(O)cc1`, the outcome in the assay with Nucleic Acid [1] and with Nucleic Acid [3] was inactive. Also, the outcome in the assay on Nucleic Acid [2] was Active.

Regarding `O=C(O/N=C/c1cc2ccccc2nc1Cl)c1ccc(F)cc1`, the result with Nucleic Acid [1], in the assay on Nucleic Acid [2] and with Nucleic Acid [3] was Active.

Take `COc1ccc(C(=O)O/N=C/c2cc3ccccc3nc2Cl)cc1`: the outcome in the assay on Nucleic Acid [1] and in the assay on Nucleic Acid [3] was inactive. For the same compound, in the assay with Nucleic Acid [2], the result was Active.
